Measured values: patent US12226409B2, “Treatment of hepatocellular carcinoma” (Eisai R&D Management Co., Ltd., priority 2017, dated 2025)

Columns and labels:
[1] = tested on: unresectable HCC; assay: Open-label phase 3 noninferiority study, efficacy (tumor assessment by mRECIST); type: in vivo, human
Text: (§1) The primary endpoint was overall survival.
Patients who were eligible for enrollment had unresectable HCC with diagnosis confirmed histologically or cytologically or with diagnosis confirmed clinically in accordance with the American Association for the Study of Liver Diseases criteria. Included patients also had ≥1 measureable target lesion, based on modified Response Evaluation Criteria in Solid Tumors (Lencioni 2010); Barcelona Clinic Liver Cancer stage B or C categorization (Bruix Hepatology 2011); Child-Pugh class A; and Eastern Cooperative Oncology Group performance status ≤1. All eligible patients had controlled blood pressure (≤150/90 mm Hg), and adequate organ function. Patients with ≥50% liver occupation, clear bile duct invasion, or portal vein invasion at the main portal vein were excluded. Patients also were excluded if that had received prior systemic therapy for HCC.
(§2) Tumors were evaluated in accordance with mRECIST (Lencioni R., Semin Liver Dis., 30(1):52-60, 2010); RECIST 1.1 was applied for nonhepatic lesions (Eisenhauer, Eur J Cancer, 45(2):228-47, 2009). The liver was examined with computed tomography or magnetic resonance imaging was performed using a triphasic scanning technique. Assessments were performed every 8 weeks until disease progression. Quality of life questionnaires were administered at baseline, on day 1 of each subsequent treatment cycle, and at the off-treatment visit.
The primary endpoint of overall survival was first tested for noninferiority then for superiority. The required number of events for the primary analysis was 700 deaths, based on the fill analysis set. The HR and its 95% confidence interval (CI) were estimated from a Cox proportional hazard model with treatment group as a factor and with the analysis stratified according to the same factors applied for randomization.
A fixed-sequence procedure was followed to control the overall type I error rate of analyses for both the primary and secondary efficacy endpoints at α=0.05 (2-sided). After noninferiority was declared, secondary efficacy endpoints were tested. Differences in progression-free survival and time to progression were evaluated using a stratified log-rank test with randomization stratification factors, with the associated HR and its 95% CI. A difference in the objective response rate was evaluated using the Cochran-Mantel-Haenszel chi-square test with randomized stratification factors as strata, with associated odds ratio and its 95% CI. To assess futility, 2 interim analyses (at 30% and 70% of the target number of events) were performed using Bayesian predictive probability in a noninferiority design by the independent data monitoring committee.

[2] = tested on: unresectable hepatocellular carcinoma (HCC); assay: REFLECT study, efficacy per independent review; type: in vivo, human
Method: The efficacy of LENVIMA was evaluated in a randomized, open-label, multicenter, international study (REFLECT; […]) conducted in patients with previously untreated unresectable hepatocellular carcinoma (HCC).

[3] = tested on: patients with unresectable HCC; assay: Quality of life, EORTC QLQ-C30 and QLQ-HCC18 questionnaires; type: in vivo, human; details: role functioning, pain, diarrhea (QLQ-C30); nutrition, body image (QLQ-HCC18)
Method: as §1, §2

[4] = tested on: patients with unresectable HCC; details: human, in vivo
Text: (§3) Randomization was stratified according to region (Asia-Pacific or Western regions), macroscopic portal vein invasion and/or extrahepatic spread (yes or no), Eastern Cooperative Oncology Group performance status (0 or 1), and body weight (<60 kg or ≥60 kg).
(§4) Safety assessments included recording of vital signs, hematologic and biochemical laboratory testing, urinalysis, and electrocardiography.

[5] = tested on: HCC; details: cited from earlier work
[6] = tested on: patients with unresectable HCC; assay: Open-label phase 3 study, safety and side-effect profile (CTCAE v4.0); details: 1 event per patient
Text: as §3, §4

CNC(=O)c1cc(Oc2ccc(NC(=O)Nc3ccc(Cl)c(C(F)(F)F)c3)cc2)ccn1 [Sorafenib]
Primary reason for discontinuation of treatment: Disease Progression ([1]; Full Analysis Set): 347 (72.9) n (%) | Median overall survival ([1]; in vivo): 12.3 mo | Median progression-free survival ([1]; mRECIST): 3.7 mo | Median time to progression ([1]; mRECIST): 3.7 mo | Objective response rate ([1]; mRECIST): 9.2% | Median PFS ([2]; RECIST 1.1, independent review): 3.6 months | PFS Number of Events ([2]; RECIST 1.1, independent review): 320 | PFS Number of Events (%) ([2]; RECIST 1.1, independent review): (67) % | Median OS ([2]; in vivo): 12.3 months | Number of deaths ([2]; in vivo): 350 | Number of deaths (%) ([2]; in vivo): (74) % | Median PFS ([2]; mRECIST, independent review): 3.6 months | PFS Number of Events ([2]; mRECIST, independent review): 323 | PFS Number of Events (%) ([2]; mRECIST, independent review): (68) % | time to clinically meaningful deterioration of quality of life [3]: deterioration was observed earlier | AEs leading to dose reduction or interruption, subjects [4]: 55.6% | Dose modification: AST increased [4]: 3.8% | Dose modification: ascites [4]: 1.1% | Dose modification: hepatic encephalopathy [4]: 0.6% | Dose modification: neutrophil count decreased [4]: 1.1% | Dose modification: pyrexia [4]: 1.1% | Dose modification: vomiting [4]: 1.3% | Dose modification: weight decreased [4]: 0.8% | Dose reduction/interruption: Abdominal pain [4]: 8 (1.7) n (%) | Dose reduction/interruption: Abdominal pain upper [4]: 2 (0.4) n (%) | Dose reduction/interruption: Alanine aminotransferase increased [4]: 9 (1.9) n (%) | Dose reduction/interruption: Anemia [4]: 8 (1.7) n (%) | Dose reduction/interruption: Ascites [4]: 5 (1.1) n (%) | Dose reduction/interruption: Aspartate aminotransferase increased [4]: 18 (3.8) n (%) | Dose reduction/interruption: Asthenia [4]: 9 (1.9) n (%) | Dose reduction/interruption: Blood and lymphatic system disorders [4]: 13 (2.7) n (%) | Dose reduction/interruption: Blood bilirubin increased [4]: 14 (2.9) n (%) | Dose reduction/interruption: Decreased appetite [4]: 15 (3.2) n (%) | Dose reduction/interruption: Dehydration [4]: 0 (0.0) n (%) | Dose reduction/interruption: Diarrhea [4]: 35 (7.4) n (%) | Dose reduction/interruption: Dyspnea [4]: 4 (0.8) n (%) | Dose reduction/interruption: Edema peripheral [4]: 3 (0.6) n (%) | Dose reduction/interruption: Esophageal varices hemorrhage [4]: 1 (0.2) n (%) | Dose reduction/interruption: Fatigue [4]: 17 (3.6) n (%) | Dose reduction/interruption: Gamma-glutamyltransferase increased [4]: 4 (0.8) n (%) | Dose reduction/interruption: Gastrointestinal disorders [4]: 72 (15.2) n (%) | Dose reduction/interruption: General disorders and administration site conditions [4]: 35 (7.4) n (%) | Dose reduction/interruption: Hepatic encephalopathy [4]: 3 (0.6) n (%) | Dose reduction/interruption: Hepatic function abnormal [4]: 9 (1.9) n (%) | Dose reduction/interruption: Hepatobiliary disorders [4]: 19 (4.0) n (%) | Dose reduction/interruption: Hypertension [4]: 18 (3.8) n (%) | Dose reduction/interruption: Hyponatremia [4]: 0 (0.0) n (%) | Dose reduction/interruption: Investigations [4]: 52 (10.9) n (%) | Dose reduction/interruption: Malaise [4]: 0 (0.0) n (%) | Dose reduction/interruption: Metabolism and nutrition disorders [4]: 19 (4.0) n (%) | Dose reduction/interruption: Musculoskeletal and connective tissue disorders [4]: 9 (1.9) n (%) | Dose reduction/interruption: Myalgia [4]: 0 (0.0) n (%) | Dose reduction/interruption: Nausea [4]: 9 (1.9) n (%) | Dose reduction/interruption: Nervous system disorders [4]: 14 (2.9) n (%) | Dose reduction/interruption: Neutropenia [4]: 0 (0.0) n (%) | Dose reduction/interruption: Neutrophil count decreased [4]: 5 (1.1) n (%) | Dose reduction/interruption: PPE syndrome [4]: 18.5% | Dose reduction/interruption: Palmar-plantar erythrodysesthesia syndrome [4]: 88 (18.5) n (%) | Dose reduction/interruption: Platelet count decreased [4]: 12 (2.5) n (%) | Dose reduction/interruption: Proteinuria [4]: 7 (1.5) n (%) | Dose reduction/interruption: Pyrexia [4]: 5 (1.1) n (%) | Dose reduction/interruption: Rash [4]: 10 (2.1) n (%) | Dose reduction/interruption: Rash maculo-papular [4]: 5 (1.1) n (%) | Dose reduction/interruption: Renal and urinary disorders [4]: 9 (1.9) n (%) | Dose reduction/interruption: Respiratory, thoracic and mediastinal disorders [4]: 12 (2.5) n (%) | Dose reduction/interruption: Stomatitis [4]: 2 (0.4) n (%) | Dose reduction/interruption: Thrombocytopenia [4]: 4 (0.8) n (%) | Dose reduction/interruption: Vascular disorders [4]: 19 (4.0) n (%) | Dose reduction/interruption: Vomiting [4]: 6 (1.3) n (%) | Dose reduction/interruption: Weight decreased [4]: 4 (0.8) n (%) | Dose reduction/interruption: White blood cell count decreased [4]: 4 (0.8) n (%) | Dose reduction/interruption: decreased appetite [4]: 3.2% | Dose reduction/interruption: diarrhea [4]: 7.4% | Dose reduction/interruption: fatigue [4]: 3.6% | Dose reduction/interruption: hypertension [4]: 3.8% | Dose reduction/interruption: proteinuria [4]: 1.5% | Primary reason for discontinuation of treatment: Adverse event [4]: 43 (9.0) n (%) | Subjects with Any TEAEs [4]: 472 (99.4) n (%) | Subjects with any TEAEs leading to Dose Reduction or Interruption [4]: 264 (55.6) n (%) | TEAE: Abdominal pain [4]: 87 (18.3) n (%) | TEAE: Abdominal pain upper [4]: 40 (8.4) n (%) | TEAE: Alanine aminotransferase increased [4]: 52 (10.9) n (%) | TEAE: Alopecia [4]: 119 (25.1) n (%) | TEAE: Ascites [4]: 44 (9.3) n (%) | TEAE: Aspartate aminotransferase increased [4]: 80 (16.8) n (%) | TEAE: Asthenia [4]: 48 (10.1) n (%) | TEAE: Back pain [4]: 31 (6.5) n (%) | TEAE: Blood bilirubin increased [4]: 63 (13.3) n (%) | TEAE: Constipation [4]: 52 (10.9) n (%) | TEAE: Edema peripheral [4]: 33 (6.9) n (%) | TEAE: Fatigue [4]: 119 (25.1) n (%) | TEAE: Nausea [4]: 68 (14.3) n (%) | TEAE: Palmar-plantar erythrodysesthesia [4]: 52.4% | TEAE: Palmar-plantar erythrodysesthesia syndrome [4]: 249 (52.4) n (%) | TEAE: Platelet count decreased [4]: 58 (12.2) n (%) | TEAE: Pyrexia [4]: 63 (13.3) n (%) | TEAE: Rash [4]: 76 (16.0) n (%) | TEAE: Stomatitis [4]: 56 (11.8) n (%) | TEAE: Vomiting [4]: 36 (7.6) n (%) | TEAE: Weight decreased [4]: 106 (22.3) n (%) | Treatment-emergent adverse events of grade 3 or higher, patients [4]: 66.5% | Treatment-emergent adverse events, patients [4]: 99.4% | WBC count deceased, adjusted by treatment duration [4]: 0.15 episodes per SY | dysphonia, adjusted by treatment duration [4]: 0.28 episodes per SY | hepatic encephalopathy, adjusted by treatment duration [4]: 0.04 episodes per SY | hypothyroidism, adjusted by treatment duration [4]: 0.03 episodes per SY | neutrophil count decreased, adjusted by treatment duration [4]: 0.06 episodes per SY | proteinuria, adjusted by treatment duration [4]: 0.31 episodes per SY | subjects without a TEAE [4]: 3 subjects | Median overall survival ([5]; first-line treatment for HCC): 10.7 months | median improvement in overall survival compared with placebo ([5]; in vivo): 2.8 months | response rate ([5]; in vivo): 2% | treatment-related fatal adverse events included [6]: tumor hemorrhage, ischemic stroke, respiratory failure, and sudden death
